The record followed here is US20180298024A1, “CORTISTATIN ANALOGS AND USES THEREOF” (President and Fellows of Harvard College, priority 2015, published 2018).

One test has as its target T1, MUSK (Homo sapiens, UniProt O15146).
T1 construct: purchased ProQinase; host or cells: Sf9 insect cells or E. coli
T1 sequence (O15146 24-869): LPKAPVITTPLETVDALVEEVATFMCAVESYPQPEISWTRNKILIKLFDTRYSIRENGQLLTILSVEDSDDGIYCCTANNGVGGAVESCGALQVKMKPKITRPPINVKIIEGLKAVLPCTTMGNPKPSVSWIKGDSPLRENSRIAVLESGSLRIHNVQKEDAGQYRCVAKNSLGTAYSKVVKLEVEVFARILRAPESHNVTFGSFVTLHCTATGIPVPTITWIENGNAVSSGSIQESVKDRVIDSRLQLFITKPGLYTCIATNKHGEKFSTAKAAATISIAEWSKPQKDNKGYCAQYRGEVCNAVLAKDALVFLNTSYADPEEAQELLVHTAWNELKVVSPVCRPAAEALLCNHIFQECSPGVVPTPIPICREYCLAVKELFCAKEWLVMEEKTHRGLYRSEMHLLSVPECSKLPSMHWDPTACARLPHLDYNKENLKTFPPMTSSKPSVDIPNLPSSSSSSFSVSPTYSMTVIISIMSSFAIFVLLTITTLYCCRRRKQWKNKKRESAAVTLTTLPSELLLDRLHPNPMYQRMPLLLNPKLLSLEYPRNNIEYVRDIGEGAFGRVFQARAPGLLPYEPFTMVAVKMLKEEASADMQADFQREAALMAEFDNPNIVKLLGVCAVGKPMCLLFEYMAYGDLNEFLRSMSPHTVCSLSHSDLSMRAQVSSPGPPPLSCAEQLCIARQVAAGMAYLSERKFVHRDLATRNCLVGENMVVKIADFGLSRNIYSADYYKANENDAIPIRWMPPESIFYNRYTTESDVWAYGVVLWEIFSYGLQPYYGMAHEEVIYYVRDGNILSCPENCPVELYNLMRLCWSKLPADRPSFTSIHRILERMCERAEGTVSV
Nature of the test: 33PanQinase radiometric kinase assay, MUSK. Format: biochemical. As to the method: A radiometric protein kinase assay (33PanQinase Activity Assay) was used for measuring the kinase activity of the 320 protein kinases. All kinase assays were performed in 96-well FlashPlates™ from Perkin Elmer (Boston, Mass., USA) in a 50 μl reaction volume. The reaction cocktail was pipetted in 4 steps in the following order: • 1. 10 μl of non-radioactive ATP solution (in H2O) • 2. 25 μl of assay buffer/[γ-33P]-ATP mixture • 3. 5 μl of test sample in 10% DMSO • 4. 10 μl of enzyme/substrate mixture
All PKC assays (except the PKC-mu and the PKC-nu assay) additionally contained 1 mM CaCl2, 4 mM EDTA, 5 μg/ml phosphatidylserine and 1 μg/ml 1,2-dioleyl-glycerol.
The CAMKID, CAMK2A, CAMK2B, CAMK2D, CAMK4, CAMKK1, CAMKK2, DAPK2, EEF2K, MYLK, MYLK2 and MYLK3 assays additionally contained 1 μg/ml Calmodulin and 0.5 mM CaCl2). The PRKG1 and PRKG2 assays additionally contained 1 μM cGMP. The DNA-PK assay additionally contained 2.5 μg/ml DNA. The protein kinase reaction cocktails were incubated at 30° C. for 60 minutes. The reaction was stopped with 50 μl of 2% (v/v) H3PO4, plates were aspirated and washed two times with 200 μl 0.9% (w/v) NaCl. Incorporation of 33Pi (counting of “cpm”) was determined with a microplate scintillation counter (Microbeta, Wallac). All protein kinase assays were performed with a BeckmanCoulter Biomek 2000/SL robotic system.
All protein kinases provided by ProQinase were expressed in Sf9 insect cells or in E. coli as recombinant GST-fusion proteins or His-tagged proteins, either as full-length or enzymatically active fragments. All kinases were produced from human cDNAs and purified by either GSHaffinity chromatography or immobilized metal. Affinity tags were removed from a number of kinases during purification. […]
For each kinase, the median value of the cpm of three wells was defined as “low control” (n=3). This value reflects unspecific binding of radioactivity to the plate in the absence of a protein kinase but in the presence of the substrate. […] The residual activity (in %) for each compounds well was calculated by using the following formula: […]

Another test deals with T2, Dopamine Transporter (Homo sapiens, UniProt Q01959).
T2 construct: Eurofins Panlabs
T2 sequence (Q01959 whole entry): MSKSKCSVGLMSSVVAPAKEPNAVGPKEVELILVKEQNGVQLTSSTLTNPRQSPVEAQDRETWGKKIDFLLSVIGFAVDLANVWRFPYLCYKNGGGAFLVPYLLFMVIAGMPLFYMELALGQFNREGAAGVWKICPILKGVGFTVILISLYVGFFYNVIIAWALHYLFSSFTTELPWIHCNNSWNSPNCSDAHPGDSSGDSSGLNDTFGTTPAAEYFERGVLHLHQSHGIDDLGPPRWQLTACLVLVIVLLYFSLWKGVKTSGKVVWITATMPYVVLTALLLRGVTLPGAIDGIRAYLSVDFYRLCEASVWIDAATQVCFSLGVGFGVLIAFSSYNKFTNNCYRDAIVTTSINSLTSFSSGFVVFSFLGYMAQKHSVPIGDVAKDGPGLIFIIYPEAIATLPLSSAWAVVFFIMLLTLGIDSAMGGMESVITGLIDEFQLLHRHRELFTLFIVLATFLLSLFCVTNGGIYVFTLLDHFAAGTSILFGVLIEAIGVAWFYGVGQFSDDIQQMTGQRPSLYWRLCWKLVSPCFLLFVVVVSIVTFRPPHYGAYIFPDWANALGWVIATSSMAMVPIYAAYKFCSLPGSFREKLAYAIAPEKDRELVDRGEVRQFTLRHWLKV
As to the kind of experiment: Panlab assay, Dopamine Transporter. Format: binding. The protocol: Compounds A, B, C, and D were tested in Panlab assays to evaluate potential off-target activity using standard assay kits. Methods employed in these studies have been adapted from the scientific literature to maximize reliability and reproducibility.
IC50 values were determined by a non-linear, least squares regression analysis using MathIQ™ (ID Business Solutions Ltd., UK). […] Where presented, the Hill coefficient (nH), defining the slope of the competitive binding curve, was calculated using MathIQ™.

Several values for one entry are separate records, joined by “and”; a condition that tells them apart may be missing. Equal entries are not always repeated.

Turning to `C[C@]12CC=C3C=C4CC[C@@H](O)C[C@]45CC[C@]3(O5)[C@@H]1CC[C@@H]2c1ccc2ccncc2c1` [Compound A, (3S,3aR,9R,10aR,12aS,12bR)-3-(isoquinolin-7-yl)-3a-methyl-1,2,3,3a,4,7,8,9,10,11,12,12b-dodecahydro-10a,12a-epoxybenzo[4,5]cyclohepta[1,2-e]inden-9-ol], the inhibition at 1 µM on MUSK (1 μM, 2 replicates, read-out: average percent inhibition of MUSK) is > 50%. Also, the “percent inhibition of MUSK, replicates” value on MUSK (1 μM, single replicates) is 36% and 111%. Also, the “inhibition of MUSK upon retesting” value against MUSK (up to 10 μM) is given as “not inhibited”. For the same compound, on Dopamine Transporter, the IC50 stood at 4.9 µM and the “nH (Hill coefficient), Dopamine Transporter” value is given as 0.97. The Ki at Dopamine Transporter (Cheng and Prusoff) is 3.89 µM.
